Bridge positions count the residues as written; N and C are the ends. Square brackets hold non-standard residues; d marks the D form. Peptide text beside a SMILES is read from it. * marks the point of attachment. Phe(4-COOH) = N[C@@H](Cc1ccc(C(=O)O)cc1)C(=O)O; Bip = N[C@@H](Cc1ccc(-c2ccccc2)cc1)C(=O)O; Phe(3-Me) = Cc1cccc(C[C@H](N)C(=O)O)c1; Cha = N[C@@H](CC1CCCCC1)C(=O)O; Carboxymethyl = O=C(O)C*; Orn = NCCC[C@H](N)C(=O)O; Aun = NCCCCCCCCCCC(=O)O; Dab = NCC[C@H](N)C(=O)O; Dap = NC[C@H](N)C(=O)O; AEEA = NCCOCCOCC(=O)O

T1 sequence (Q15116 25-288): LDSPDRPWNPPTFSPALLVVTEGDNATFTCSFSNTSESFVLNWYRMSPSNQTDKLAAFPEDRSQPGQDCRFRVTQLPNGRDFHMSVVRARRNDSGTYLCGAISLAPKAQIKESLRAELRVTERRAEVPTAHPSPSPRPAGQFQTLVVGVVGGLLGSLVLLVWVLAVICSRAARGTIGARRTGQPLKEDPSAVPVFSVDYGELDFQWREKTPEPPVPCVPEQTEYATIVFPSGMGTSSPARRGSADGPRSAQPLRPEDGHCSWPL

The assay concerns the target T1, PD-1/PD-L1 interaction (PE-labeled human PD-L1-Ig binding to Jurkat cell line over-expressing human PD-1) (Homo sapiens, UniProt Q15116).
T1 construct: expressed in transfected cells; host or cells: Jurkat
Put plainly: Jurkat-PD-1 Cell Binding High-Content Screening Assay (CBA). Type of assay: cell-based. Particulars: Jurkat cell line over-expressing human PD-1; PE-labeled PD-L1-Ig 20 nM final; read-out: Jurkat hPD1-PDL1 IC50. In a few lines:
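Human PD-L1-Ig carrying a covalent PE label on its Ig tag serves as the probe, applied at 20 nM final to compound-treated (2 h, 37° C) Jurkat-hPD-1 cells in medium with 10% fetal calf serum. After one hour, fixation and nuclear staining precede high-content image analysis.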
One may read the IC50 as the midpoint of a concentration-inhibition curve. As for `Cc1cccc(C[C@@H]2NC(=O)[C@H](CC(=O)O)NC(=O)[C@H](Cc3ccc(OCC(=O)O)cc3)NC(=O)[C@H](CN)NC(=O)CSC[C@@H](C(=O)NCCOCCOCC(=O)N[C@@H](CCCCN)C(=O)NCCCCCCCCCCC(=O)O)NC(=O)[C@H](CCCNC(=N)N)NC(=O)[C@H](C(C)C)NC(=O)[C@H](CC3CCCCC3)NC(=O)[C@H](CCN)NC(=O)[C@@H](CC(C)C)NC(=O)[C@H](CCCN)NC(=O)[C@H](C(C)C)NC(=O)[C@H](Cc3ccc(-c4ccccc4)cc3)NC(=O)[C@H](C(C)C)NC2=O)c1` [Compound 2598] ({CH2CO}-[Dap]Y(Carboxymethyl)D[Phe(3-Me)]V[Bip]V[Orn][dL][Dab][Cha]VRC[AEEA]K[Aun]-OH; thioether N-14), the IC50 was found to be 10.6 nM.
As for `CC(C)C[C@H]1NC(=O)[C@H](CCCN)NC(=O)[C@H](C(C)C)NC(=O)[C@H](Cc2ccc(-c3ccccc3)cc2)NC(=O)[C@H](C(C)C)NC(=O)[C@H](Cc2c[nH]c3ccccc23)NC(=O)[C@H](CC(=O)O)NC(=O)[C@H](Cc2ccc(OCC(=O)O)cc2)NC(=O)[C@H](Cc2ccc(OCC(=O)O)cc2)NC(=O)CSC[C@@H](C(=O)NCCOCCOCC(=O)N[C@@H](CCCCN)C(=O)NCCCCCCCCCCC(=O)O)NC(=O)[C@H](CCCN)NC(=O)[C@H](C(C)C)NC(=O)[C@H](CC2CCCCC2)NC(=O)[C@H](CCN)NC1=O` [Compound 2599] ({CH2CO}-Y(Carboxymethyl)Y(Carboxymethyl)DWV[Bip]V[Orn][dL][Dab][Cha]V[Orn]C[AEEA]K[Aun]-OH; thioether N-14), the figure is 8.2 nM; as for `CC(C)C[C@H]1NC(=O)[C@H](CCCN)NC(=O)[C@H](C(C)C)NC(=O)[C@H](Cc2ccc(-c3ccccc3)cc2)NC(=O)[C@H](C(C)C)NC(=O)[C@H](Cc2c[nH]c3ccccc23)NC(=O)[C@H](CC(=O)O)NC(=O)[C@H](Cc2ccc(OCC(=O)O)cc2)NC(=O)[C@H](Cc2ccc(OCC(=O)O)cc2)NC(=O)CSC[C@@H](C(=O)NCCOCCOCC(=O)N[C@@H](CCCCN)C(=O)NCCCCCCCCCCC(=O)O)NC(=O)[C@H](CN)NC(=O)[C@H](C(C)C)NC(=O)[C@H](CC2CCCCC2)NC(=O)[C@H](CCN)NC1=O` [Compound 2600] ({CH2CO}-Y(Carboxymethyl)Y(Carboxymethyl)DWV[Bip]V[Orn][dL][Dab][Cha]V[Dap]C[AEEA]K[Aun]-OH; thioether N-14), 10.3 nM.
Turning to `CC(C)C[C@H]1NC(=O)[C@H](CCCN)NC(=O)[C@H](C(C)C)NC(=O)[C@H](Cc2ccc(-c3ccccc3)cc2)NC(=O)[C@H](C(C)C)NC(=O)[C@H](Cc2c[nH]c3ccccc23)NC(=O)[C@H](CC(=O)O)NC(=O)[C@H](Cc2ccc(C(=O)O)cc2)NC(=O)[C@H](Cc2ccc(OCC(=O)O)cc2)NC(=O)CSC[C@@H](C(=O)NCCCCCCCCCCC(=O)O)NC(=O)[C@H](CCCCN)NC(=O)[C@H](C(C)C)NC(=O)[C@H](CC2CCCCC2)NC(=O)[C@H](CCN)NC1=O` [Compound 2601] ({CH2CO}-Y(Carboxymethyl)[Phe(4-COOH)]DWV[Bip]V[Orn][dL][Dab][Cha]VKC[Aun]-OH; thioether N-14), the IC50 was found to be 18.2 nM.
In the case of `CC(C)C[C@H]1NC(=O)[C@H](CCCN)NC(=O)[C@H](C(C)C)NC(=O)[C@H](Cc2ccc(-c3ccccc3)cc2)NC(=O)[C@H](C(C)C)NC(=O)[C@H](Cc2c[nH]c3ccccc23)NC(=O)[C@H](CC(=O)O)NC(=O)[C@H](Cc2ccc(OCC(=O)O)cc2)NC(=O)[C@H](Cc2ccc(OCC(=O)O)cc2)NC(=O)CSC[C@@H](C(=O)NCCCCCCCCCCC(=O)O)NC(=O)[C@H](CCCNC(=N)N)NC(=O)[C@H](C(C)C)NC(=O)[C@H](CC2CCCCC2)NC(=O)[C@H](CCN)NC1=O` [Compound 2602] it was 18.4 nM.

For the origin of these results see US20260022142A1, “MACROCYCLIC IMMUNOMODULATORS” (Bristol-Myers Squibb Company, priority 2022, published 2026).
